Where a name gives a salt, the structure may show the parent alone. Read-outs that look alike come from different tables or passages of the source.

As usually defined, the IC50 is the concentration at which inhibition is half-maximal.

The target in one assay is AOC1 (Homo sapiens (Human), UniProt P19801). The assay can be described thus: AOC1 biochemical assay (Amplex Red). The procedure: The Amplex® Red Assay (available from Thermo Fisher Scientific) provides a sensitive method for the detection of H2O2 generated during enzymatic reactions like the amine oxidation catalyzed by AOC1. The assay reagent is a colorless substrate (N-acetyl-3,7-dihydroxyphenoxazine) that reacts in a 1:1 stoichiometry with hydrogen peroxide (H2O2) to produce the fluorescent dye resorufin (7-hydroxyphenoxazin-3-one, excitation/emission maxima=570/585 nm).
Chain of AOC1 (P19801 20-751): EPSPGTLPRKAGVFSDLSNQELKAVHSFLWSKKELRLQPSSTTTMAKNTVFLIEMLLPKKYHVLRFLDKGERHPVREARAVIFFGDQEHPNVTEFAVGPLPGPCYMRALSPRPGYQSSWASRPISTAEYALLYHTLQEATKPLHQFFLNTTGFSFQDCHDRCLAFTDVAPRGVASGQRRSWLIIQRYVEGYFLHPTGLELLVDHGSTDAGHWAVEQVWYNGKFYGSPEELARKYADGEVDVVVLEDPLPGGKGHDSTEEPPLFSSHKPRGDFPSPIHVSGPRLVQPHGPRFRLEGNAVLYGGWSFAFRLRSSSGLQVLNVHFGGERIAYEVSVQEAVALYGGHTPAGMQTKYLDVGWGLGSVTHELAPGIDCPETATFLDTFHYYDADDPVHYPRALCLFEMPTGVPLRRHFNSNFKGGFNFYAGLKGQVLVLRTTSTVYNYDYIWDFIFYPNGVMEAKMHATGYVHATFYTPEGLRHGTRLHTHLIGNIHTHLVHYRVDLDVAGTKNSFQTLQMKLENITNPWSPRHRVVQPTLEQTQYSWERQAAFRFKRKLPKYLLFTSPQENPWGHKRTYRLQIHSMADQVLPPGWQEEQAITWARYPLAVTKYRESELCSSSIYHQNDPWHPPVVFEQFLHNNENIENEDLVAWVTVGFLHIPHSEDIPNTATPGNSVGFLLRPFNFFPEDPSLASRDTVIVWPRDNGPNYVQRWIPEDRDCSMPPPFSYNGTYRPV
An aliquot of 3 μL of the compound dilution is added to a 384 well plate (Optiplate, PS, flat bottom F, black, PERKIN ELMER, #6007270) in a DMSO concentration of 6.6%.
An AOC1 enzyme aliquot (#8297-AO-010, R&D Systems) is thawed on ice, diluted in reaction buffer and added in a volume of 7 μL to the wells to give a final assay concentration of 1 ng/well. After incubation of inhibitor and enzyme for 30 minutes at 37° C., the enzymatic reaction is started with the addition of 10 μL of Amplex® Red reaction mix (final assay concentration: 100 mM sodiumphosphate, 120 μM Amplex® Red reagent (#A22177 Molecular Probes), 1.5 U/mL Horseradish Peroxidase (#P8375 Sigma-Aldrich), 200 μM putrescine (#P7505 Sigma-Alrdich), 0.05% Pluronic F-127 (#P3000MP Sigma-Aldrich), pH 7.4, 37° C.).
After an incubation for 30 minutes at 37° C. the turnover of the substrate is determined directly (or after the addition of an excess of an amine-oxidase inhibitor) with a fluorescence reader (Ex 540 nm/Em 590 nm) like Envision 2104 Multilabel Reader (PERKIN ELMER).

A further assay concerns the target AOC2 (Homo sapiens (Human), UniProt O75106). As to the kind of experiment: AOC2 biochemical assay (Amplex Red). As for the experimental part:
An aliquot of 5 μL of the compound dilution is added to a 96 well plate (flat bottom F, black, GREINER bio-one, #655900) in a DMSO concentration of 2%. […] Cells are cultured for 3 days in EMEM culture medium containing 10% FCS (#04-00-1A, Biological Industries). After washing twice with ice cold PBS, cells are lysed by mechanic homogenation and cleared supernatants are shock frozen in liquid nitrogen and stored at -80° C. […] An Aliquot of 45 μL is added to the compound dilution and incubated for 30 min at 37° C. The enzymatic reaction is started with the addition of 50 μL of Amplex® Red reaction mix (final assay concentration: 100 mM sodiumphosphate, 120 μM Amplex® Red reagent (#A22177 Molecular Probes), 1.5 U/mL Horseradish Peroxidase (#P8375 Sigma-Aldrich), 2 mM phenylethylamine (#[…] Sigma-Aldrich), 0.05% Pluronic F-127 (#P3000MP Sigma-Aldrich), pH 7.4, 37° C.). The turnover per time of the substrate is determined directly with a fluorescence reader (Ex 540 nm/Em 590 nm) like Envision 2104 Multilabel Reader (PERKIN ELMER) for 60 min.

In another assay the target is human AOC3 enzyme (Homo sapiens (Human), UniProt Q16853). As to the kind of experiment: AOC3 biochemical assay (MAO-Glo). The source says: The MAO-Glo™ Assay (commercially available from PROMEGA, #V1402) provides a sensitive method for the measurement of monoamine oxidase (MAO) activity (Valley, M. P. et al., 2006, Anal. Biochem. 359: 238-246) from a variety of tissues, biofluids or recombinant expressed or purified enzymes. As substrate a derivate of the beetle luciferin ((4S)-4,5-dihydro-2-(6-hydroxybenzothiazolyl)-4-thiazole-carboxylic acid) is used, which is oxidized at a primary amine moiety. After a spontaneous elimination and a catalyzed esterase reaction, the turnover of the luciferine by the luciferase is recorded as a signal of AOC3 activity.
Chain of human AOC3 enzyme (Q16853 whole entry): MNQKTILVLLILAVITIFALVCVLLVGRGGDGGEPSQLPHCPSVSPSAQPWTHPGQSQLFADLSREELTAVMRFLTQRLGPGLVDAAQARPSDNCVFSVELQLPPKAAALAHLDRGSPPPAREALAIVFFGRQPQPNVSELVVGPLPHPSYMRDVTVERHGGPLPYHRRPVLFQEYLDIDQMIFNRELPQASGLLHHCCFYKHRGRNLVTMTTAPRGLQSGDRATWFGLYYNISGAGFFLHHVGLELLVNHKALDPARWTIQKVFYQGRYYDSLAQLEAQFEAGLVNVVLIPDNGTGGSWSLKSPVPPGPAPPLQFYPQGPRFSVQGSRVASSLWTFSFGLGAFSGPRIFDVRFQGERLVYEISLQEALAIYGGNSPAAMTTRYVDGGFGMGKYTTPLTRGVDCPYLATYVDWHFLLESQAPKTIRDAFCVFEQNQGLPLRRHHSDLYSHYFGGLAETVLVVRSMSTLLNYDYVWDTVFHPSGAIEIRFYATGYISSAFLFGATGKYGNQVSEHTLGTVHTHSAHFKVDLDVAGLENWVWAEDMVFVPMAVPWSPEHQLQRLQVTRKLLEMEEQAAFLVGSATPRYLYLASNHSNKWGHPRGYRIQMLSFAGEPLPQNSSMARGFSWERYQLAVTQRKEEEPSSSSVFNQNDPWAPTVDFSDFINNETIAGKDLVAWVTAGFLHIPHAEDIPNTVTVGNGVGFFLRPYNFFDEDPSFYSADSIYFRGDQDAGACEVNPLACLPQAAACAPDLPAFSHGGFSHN
An aliquot of 3 μL of the compound dilution is added to a 384 well plate (Optiplate, PS, flat bottom, white, PERKIN ELMER, #6007290) with a final DMSO concentration of 6.6%. Recombinant CHO cells, overexpressing the human (1500 cells/well), mouse (1000 cells/well) or rat (500 cells/well) AOC3 enzyme are diluted in reaction buffer and added in a volume of 15 μL to the wells. After incubation for 20 minutes at 37° C., 2 μL of MAO substrate (dissolved in DMSO at 16 mM, adjusted to assay concentration in reaction buffer to a final assay concentration of 20 μM) is added and further incubated for 60 minutes at 37° C. The turnover of the substrate is determined by the addition of 20 μL of the detection-mix which was generated by the addition of reconstitution buffer with esterase (PROMEGA, #V1402) to the luciferine detection reagent (PROMEGA, #V1402). After an incubation period of 20 minutes, the luminescent signal is measured with Envision 2104 Multilabel Reader (PERKIN ELMER).

[1] abbreviates: comparison table, read-out: IC50 AOC1.
Where [2] appears, read: comparison table, read-out: IC50 AOC2.
Setting [3] is: comparison table, read-out: IC50 AOC3.

Chain of AOC2 (O75106 whole entry): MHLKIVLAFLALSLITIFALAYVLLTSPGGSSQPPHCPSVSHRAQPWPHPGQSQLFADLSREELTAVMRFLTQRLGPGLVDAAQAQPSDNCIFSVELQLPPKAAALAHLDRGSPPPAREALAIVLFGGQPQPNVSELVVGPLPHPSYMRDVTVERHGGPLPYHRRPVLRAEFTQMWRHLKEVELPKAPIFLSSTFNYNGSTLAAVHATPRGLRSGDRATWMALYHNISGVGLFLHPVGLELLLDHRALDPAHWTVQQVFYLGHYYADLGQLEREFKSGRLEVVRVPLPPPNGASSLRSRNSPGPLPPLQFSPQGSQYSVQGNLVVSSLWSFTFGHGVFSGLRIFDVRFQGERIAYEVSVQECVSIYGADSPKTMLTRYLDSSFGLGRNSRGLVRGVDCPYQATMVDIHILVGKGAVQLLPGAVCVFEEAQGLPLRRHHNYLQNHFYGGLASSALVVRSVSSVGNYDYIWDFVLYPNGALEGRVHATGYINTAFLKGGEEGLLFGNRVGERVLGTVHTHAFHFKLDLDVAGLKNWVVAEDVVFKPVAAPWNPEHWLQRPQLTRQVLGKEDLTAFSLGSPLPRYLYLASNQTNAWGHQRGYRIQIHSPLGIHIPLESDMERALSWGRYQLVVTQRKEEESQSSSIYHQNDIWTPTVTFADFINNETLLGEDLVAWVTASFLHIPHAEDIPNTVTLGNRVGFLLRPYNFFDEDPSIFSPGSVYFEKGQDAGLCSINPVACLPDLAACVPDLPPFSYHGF

On to `CN(C)S(=O)(=O)c1ccc(OC/C(=C/F)CN)cc1` [Compound 14 of WO 2013/163675, reference compound], for which the IC50 is over 50 µM on AOC1 (setting [1]), 1160 nM on AOC2 (setting [2]), 1160 nM at AOC2 (read-out: IC50 AOC2) and 8 nM on human AOC3 enzyme (setting [3]). Further, the “fold less active against AOC2 as compared to AOC3 (ratio IC50 AOC2/IC50 AOC3)” value at AOC2 is “ca. 145 fold”.
Consider `CNC(=O)[C@H]1[C@@H]2CN(S(=O)(=O)c3ccc(OC/C(=C/F)CN)nc3)C[C@@H]21` [Example 01, trans-3-[6-((E)-2-Aminomethyl-3-fluoro-allyloxy)-pyridine-3-sulfonyl]-3-aza-bicyclo[3.1.0]hexane-6-carboxylic acid methylamide trifluoroacetate], for which the IC50 at AOC1 (read-out: AOC1 IC50) worked out at 43.4 µM; on AOC2 (read-out: AOC2 IC50) it was 162 nM; on human AOC3 enzyme (read-out: AOC3 IC50) it was 12 nM.
Consider `NC/C(=C\F)COc1cnc(N2CCC(O)CC2)nc1` [Example 2 of WO 2018/027892, reference compound], for which the figures for the IC50 on AOC1 (setting [1]) and on human AOC3 enzyme (setting [3]) were 0.269 µM and 20 nM, respectively.
As for `CCC(=O)NC1CCN(S(=O)(=O)c2ccc(OC/C(=C/F)CN)nc2)CC1` [Example 02], the figures for the IC50 on AOC1 (read-out: AOC1 IC50), on AOC2 (read-out: AOC2 IC50) and at human AOC3 enzyme (read-out: AOC3 IC50) were over 50 µM, 1140 nM and 33 nM, respectively.
The like results for `CNC(=O)[C@@]12C[C@@H]1CN(S(=O)(=O)c1ccc(OC/C(=C/F)CN)nc1)C2` [Example 03] were, in that order, 23.6 µM, 1020 nM and 25 nM.
The like results for `NC/C(=C\F)COc1ccc(S(=O)(=O)N2CCC(N3CCNC3=O)CC2)cn1` [Example 04] were, in that order, over 50 µM, 806 nM and 49 nM.
Consider `CO[C@H]1CCN(c2ncc(OC/C(=C/F)CN)cn2)C1` [Example 5 of WO 2018/027892, reference compound], for which the results for the IC50 on AOC1 (setting [1]), on AOC2 (setting [2]) and at human AOC3 enzyme (setting [3]) were 0.268 µM, 497 nM and 13 nM, respectively.
For `NC/C(=C\F)COc1cnc(N2CC[C@H](O)C2)nc1` [Example 6 of WO 2018/027892, reference compound] the same measures were 1.17 µM, 1120 nM and 59 nM.
Consider `CC(=O)N[C@H]1CCCN(S(=O)(=O)c2ccc(OC/C(=C/F)CN)nc2)C1` [Example 06], for which the IC50 on AOC1 (read-out: AOC1 IC50) was over 50 µM; at AOC2 (read-out: AOC2 IC50) it was 593 nM.
For the compound `CNC(=O)NC1CCN(S(=O)(=O)c2ccc(OC/C(=C/F)CN)nc2)CC1` [Example 07], the IC50 at AOC1 (read-out: AOC1 IC50) is over 50 µM; at AOC2 (read-out: AOC2 IC50), 531 nM; on human AOC3 enzyme (read-out: AOC3 IC50) it was 37 nM.
For `CN(C(N)=O)C1CCN(S(=O)(=O)c2ccc(OC/C(=C/F)CN)nc2)CC1` [Example 08] the same measures were over 50 µM, 524 nM and 37 nM.
The like results for `NC/C(=C\F)COc1ccc(S(=O)(=O)N2CCC(C(=O)N3CCOCC3)(c3ccccc3)CC2)cn1` [Example 09] were, in that order, 6.17 µM, 489 nM and 39 nM.
The like results for `NC/C(=C\F)COc1ccc(S(=O)(=O)N2CCC(C(=O)N3CCOCC3)CC2)cn1` [Example 10] were, in that order, over 50 µM, 407 nM and 52 nM.
As for `CCNC(=O)C1CCN(S(=O)(=O)c2ccc(OC/C(=C/F)CN)nc2)CC1` [Example 11], the IC50 was over 50 µM on AOC1 (read-out: AOC1 IC50), 401 nM on AOC2 (read-out: AOC2 IC50) and 12 nM on human AOC3 enzyme (read-out: AOC3 IC50).
The like results for `CN(C)C(=O)C1CCN(S(=O)(=O)c2ccc(OC/C(=C/F)CN)nc2)CC1` [Example 12] were, in that order, over 50 µM, 385 nM and 38 nM.
For `NC/C(=C\F)COc1ccc(S(=O)(=O)N2CCC(C(=O)N3CCC3)CC2)cn1` [Example 13] the same measures were over 50 µM, 358 nM and 43 nM.
As to `CC(=O)N1CC(C2CCN(S(=O)(=O)c3ccc(OC/C(=C/F)CN)nc3)CC2)C1` [Example 14], the IC50 on AOC1 (read-out: AOC1 IC50) was 14.3 µM; on AOC2 (read-out: AOC2 IC50), 306 nM; at human AOC3 enzyme (read-out: AOC3 IC50), 41 nM.
The like results for `CC(=O)NCC1CCN(S(=O)(=O)c2ccc(OC/C(=C/F)CN)nc2)CC1` [Example 15] were, in that order, over 50 µM, 263 nM and 38 nM.
Take `CN(C)C(=O)CC1CCN(S(=O)(=O)c2ccc(OC/C(=C/F)CN)nc2)CC1` [Example 16]: the IC50 on AOC1 (read-out: AOC1 IC50) was over 50 µM; at AOC2 (read-out: AOC2 IC50), 262 nM; at human AOC3 enzyme (read-out: AOC3 IC50), 30 nM.
Consider `NC/C(=C\F)COc1ccc(S(=O)(=O)N2CCC(C(N)=O)CC2)cn1` [Example 17], for which the IC50 on AOC1 (read-out: AOC1 IC50) is over 50 µM; at AOC2 (read-out: AOC2 IC50), 251 nM; on human AOC3 enzyme (read-out: AOC3 IC50), 8 nM.
In the case of `CC1(O)CN(S(=O)(=O)c2ccc(OC/C(=C/F)CN)nc2)C1` [Example 18], the IC50 was over 50 µM on AOC1 (read-out: AOC1 IC50), 244 nM at AOC2 (read-out: AOC2 IC50) and 37 nM at human AOC3 enzyme (read-out: AOC3 IC50).
For `CCNC(=O)CC1CCN(S(=O)(=O)c2ccc(OC/C(=C/F)CN)nc2)CC1` [Example 19] the same measures were over 50 µM, 214 nM and 32 nM.
For `CNC(=O)[C@@H]1CCN(S(=O)(=O)c2ccc(OC/C(=C/F)CN)nc2)C1` [Example 24], the IC50 on AOC1 (read-out: AOC1 IC50) was over 50 µM; at AOC2 (read-out: AOC2 IC50), 165 nM.
For `CNC(=O)[C@H]1CCN(S(=O)(=O)c2ccc(OC/C(=C/F)CN)nc2)C1` [Example 29] the same measures were over 50 µM and 151 nM.
Take `COCCN(C)C(=O)[C@H]1[C@@H]2CN(S(=O)(=O)c3ccc(OC/C(=C/F)CN)nc3)C[C@@H]21` [Example 59]: the IC50 is 27.2 µM at AOC1 (read-out: AOC1 IC50) and 18 nM on human AOC3 enzyme (read-out: AOC3 IC50).
As for `NC/C(=C\F)COc1ccc(S(=O)(=O)N2CCC(C(=O)NCCO)CC2)cn1` [Example 62], the IC50 on AOC1 (read-out: AOC1 IC50) is over 50 µM; on human AOC3 enzyme (read-out: AOC3 IC50), 18 nM.
Turning to `NC/C(=C\F)COc1ccc(S(=O)(=O)N2CCC(C(=O)NC3CC3)CC2)cn1` [Example 63], the results for the IC50 at AOC1 (read-out: AOC1 IC50) and at human AOC3 enzyme (read-out: AOC3 IC50) were over 50 µM and 19 nM, respectively.
As for `NC/C(=C\F)COc1ccc(S(=O)(=O)N2CCC(C(=O)NCCF)CC2)cn1` [Example 64], the 50% inhibitory concentration (IC50) at AOC1 (read-out: AOC1 IC50) was over 50 µM; at human AOC3 enzyme (read-out: AOC3 IC50) it was 17 nM.
`CC(F)(F)CNC(=O)C1CCN(S(=O)(=O)c2ccc(OC/C(=C/F)CN)nc2)CC1` [Example 65]: the half-maximal inhibitory concentration (IC50) on AOC1 (read-out: AOC1 IC50) is over 50 µM; on human AOC3 enzyme (read-out: AOC3 IC50), 11 nM.
For `COCCNC(=O)[C@H]1[C@@H]2CN(S(=O)(=O)c3ccc(OC/C(=C/F)CN)nc3)C[C@@H]21` [Example 66] the same measures were 31 µM and 23 nM.
In the case of `NC/C(=C\F)COc1ccc(S(=O)(=O)N2CC[C@H](O)C2)cc1` [Reference compound B, reference compound], the concentration for half-maximal inhibition (IC50) was over 50 µM on AOC1 (comparison table, unit μM, read-out: IC50 AOC1) and 27 nM at human AOC3 enzyme (setting [3]).

Values taken from patent US12178809B2, “Pyridinyl sulfonamide derivatives, pharmaceutical compositions and uses thereof” (Boehringer Ingelheim International GmbH, priority 2018, dated 2024).
